Results from patent US8163269B2, “Bioactive stents for type II diabetics and methods for use thereof” (priority 2004, dated 2012).
No end group written: not given here.

Legend:
[1] = test system: endothelial cells (ECs), HCAEC=Human Coronary Artery Endothelial Cells; assay: in vitro adhesion assay, attachment factor adsorbed onto non-tissue culture dish; assay type: cell-based; settings: for specificity of cell adhesion, ECs over SMCs: HCAEC versus HASMC, adsorbed peptide; for adhesion data among bioligands tested / cell adhesion and cell spreading compared with fibronectin positive control: adsorbed attachment factor
From the text: Cell Recruitment to Bioactive Agents To select appropriate bioligands for use as recruitment factors in stent applications, an in vitro adhesion assay was developed. This assay can distinguish between endothelial cells (ECs) and smooth muscle cells (SMCs) to aid in selecting potential attachment factors. Both the ECs and SMCs used in these assays were purchased from Cambrex (Baltimore, Md.) (HASMC=Human Aortic Smooth Muscle Cells and HCAEC=Human Coronary Artery Endothelial Cells).
(§1) The attachment factor, in a phosphate buffered saline (PBS) solution, was coated onto a non-tissue culture dish and allowed to adsorb overnight at 4° C. The following day the plate was blocked for 1 hour at room temperature with heat-inactivated, 0.2% bovine serum albumin (BSA) solution (in PBS) to prevent non-specific attachment. A timed adhesion assay was then conducted. The assay includes negative control wells coated only with PBS and positive control wells coated with fibronectin. So far, none of the adhesion factors tested has surpassed the cell adhesion and cell spreading induced by fibronectin. In addition to adhesion, spreading is also an important consideration in determining the suitability of a substrate. If the cells are not able to spread, it is unlikely that the cells will proliferate on that surface.
In addition to microscopic observations, cell adhesion was quantitated using an ATP assay. Data of a representative adhesion assay quantitation by ATP standard curve is shown in the graph in FIG. 4, which illustrates the comparative results obtained at 2, 4 and 6 hours into the assay. […] The cell spreading determined in microscopic observations may indicate that cell spreading can increase the overall degree of cell adhesion since more space is occupied by a well spread cell than by an adhered cell that has not spread on the surface, due to timing of data points or appropriateness of the substrate used. The ATP data are useful to support the observational findings of the adhesion assay but cannot replace the adhesion assay.

[2] = test system: ECs; assay: adhesion assay with peptides conjugated to PEA polymer; assay type: cell-based, Human; set-up: key to adhesion assay microscopic observation, cell shape: r = round; s = spindly; sp = spread; settings: for ability of peptide to bind to cells after conjugation / adhesion of ECs compared to SMCs on conjugated peptide versus unconjugated PEA-H polymer: peptide conjugated to PEA-H polymer; for adhesion relative to basal levels: assays 1 and 2
Experimental: as §1
The first conjugation was done to the PEA-H version of the polymer (acid) since this polymer has suitable sites for conjugation. The peptides can be covalently bound to this polymer via a wide variety of suitable functional groups. For example, when the biodegradable polymer is a poly(ester amide) (PEA) containing Lysine residues, the carboxyl groups from the Lysine residues can be used to react with a complementary moiety on the peptide, such as an hydroxy, amino, thio moiety, and the like (5). Specifically, the PEA-H polymer with free COOH reacts with water soluble carbodiimide (WSC) and N-Hydroxysuccinimide (HOSu) to produce an activated ester, which, in turn, reacts with an amino functional group of a peptide to provide an amide linkage (FIG. 6B). By using a fluorescent dansyl-lysine (FIG. 5), the optimal reaction conditions for activation and conjugation were determined (FIG. 6A).
The conjugation of CS5 and GREDVDY peptides to the polymer was then performed using the same protocol (FIG. 6B).
A similar protocol (see flow chart FIG. 6B) was used to conjugate combinations of the acid polymer with PEA polymer of structure (I) containing acetylated ends and benzylated COOH groups, (PEA-AcBz) and PEA-TEMPO (50/50 and 10/90), respectively. By combining the conjugatable acid form with the other polymers, a determination could be made whether the presence of the recruitment peptide on the polymer conferred an advantage in EC recruitment.
Microscopic observations taken at 2 h, 4 h and 6 h from duplicate wells from two representative adhesion assays are summarized in Table 2 below.

[3] = 2 h, 10/90 H/Bz (10% PEA-H and 90% PEA-Ac-Bz), Assay 1
[4] = 2 h, 10/90 H/Bz (10% PEA-H and 90% PEA-Ac-Bz), Assay 2
[5] = 2 h, 10/90 H/T (10% PEA-H and 90% PEA-Ac-TEMPO), Assay 1
[6] = 2 h, 10/90 H/T (10% PEA-H and 90% PEA-Ac-TEMPO), Assay 2
[7] = 2 h, 50/50 H/Bz (50% PEA-H and 50% PEA-Ac-Bz), Assay 1
[8] = 2 h, 50/50 H/Bz (50% PEA-H and 50% PEA-Ac-Bz), Assay 2
[9] = 2 h, 50/50 H/T (50% PEA-H and 50% PEA-Ac-TEMPO), Assay 1
[10] = 2 h, 50/50 H/T (50% PEA-H and 50% PEA-Ac-TEMPO), Assay 2
[11] = 4 h, 10/90 H/Bz (10% PEA-H and 90% PEA-Ac-Bz), Assay 1
[12] = 4 h, 10/90 H/Bz (10% PEA-H and 90% PEA-Ac-Bz), Assay 2
[13] = 4 h, 10/90 H/T (10% PEA-H and 90% PEA-Ac-TEMPO), Assay 1
[14] = 4 h, 10/90 H/T (10% PEA-H and 90% PEA-Ac-TEMPO), Assay 2
[15] = 4 h, 50/50 H/Bz (50% PEA-H and 50% PEA-Ac-Bz), Assay 1
[16] = 4 h, 50/50 H/Bz (50% PEA-H and 50% PEA-Ac-Bz), Assay 2
[17] = 4 h, 50/50 H/T (50% PEA-H and 50% PEA-Ac-TEMPO), Assay 1
[18] = 4 h, 50/50 H/T (50% PEA-H and 50% PEA-Ac-TEMPO), Assay 2
[19] = 6 h, 10/90 H/Bz (10% PEA-H and 90% PEA-Ac-Bz), Assay 1
[20] = 6 h, 10/90 H/Bz (10% PEA-H and 90% PEA-Ac-Bz), Assay 2
[21] = 6 h, 10/90 H/T (10% PEA-H and 90% PEA-Ac-TEMPO), Assay 1
[22] = 6 h, 10/90 H/T (10% PEA-H and 90% PEA-Ac-TEMPO), Assay 2
[23] = 6 h, 50/50 H/Bz (50% PEA-H and 50% PEA-Ac-Bz), Assay 1
[24] = 6 h, 50/50 H/Bz (50% PEA-H and 50% PEA-Ac-Bz), Assay 2
[25] = 6 h, 50/50 H/T (50% PEA-H and 50% PEA-Ac-TEMPO), Assay 1
[26] = 6 h, 50/50 H/T (50% PEA-H and 50% PEA-Ac-TEMPO), Assay 2

GEEIQIGHIPREDVDYHLYP [CS5]
specificity of cell adhesion, ECs over SMCs [1]: showed specificity for ECs over SMCs | adhesion data among bioligands tested [1]: gave the most promising adhesion data | cell adhesion and cell spreading compared with fibronectin positive control [1]: neither of these peptide sequences equaled the large molecule fibronectin in cell adhesion or spreading | ability of peptide to bind to cells after conjugation [2]: did not alter their ability to bind to cells | adhesion of ECs compared to SMCs on conjugated peptide versus unconjugated PEA-H polymer [2]: adhered significantly better to the conjugated peptides than on the unconjugated PEA-H polymer

Conj CS5: CS5 peptide (SEQ ID NO:1) conjugated to PEA-H mixed with PEA-Ac-Bz or PEA-Ac-TEMPO polymer coating (GEEIQIGHIPREDVDYHLYP; also: conjugated to PEA polymer coating)
adhesion assay microscopic observation, % [2, 3]: 30% | adhesion assay microscopic observation, cell shape [2, 3]: r/s | adhesion assay microscopic observation, % [2, 4]: 30% | adhesion assay microscopic observation, cell shape [2, 4]: r/s | adhesion assay microscopic observation, % [2, 5]: 30% | adhesion assay microscopic observation, cell shape [2, 5]: r/s | adhesion assay microscopic observation, % [2, 6]: 30% | adhesion assay microscopic observation, cell shape [2, 6]: r/s/sp | adhesion assay microscopic observation, % [2, 7]: 20% | adhesion assay microscopic observation, cell shape [2, 7]: r | adhesion assay microscopic observation, % [2, 8]: 20-30% | adhesion assay microscopic observation, cell shape [2, 8]: r | adhesion assay microscopic observation, % [2, 9]: 20-30% | adhesion assay microscopic observation, cell shape [2, 9]: r/s | adhesion assay microscopic observation, % [2, 10]: 30% | adhesion assay microscopic observation, cell shape [2, 10]: r/s | adhesion assay microscopic observation, % [2, 11]: 40% | adhesion assay microscopic observation, cell shape [2, 11]: r/sp | adhesion assay microscopic observation, % [2, 12]: 30% | adhesion assay microscopic observation, cell shape [2, 12]: s/sp | adhesion assay microscopic observation, % [2, 13]: 30% | adhesion assay microscopic observation, cell shape [2, 13]: r/s/sp | adhesion assay microscopic observation, % [2, 14]: 30-40% | adhesion assay microscopic observation, cell shape [2, 14]: s/sp | adhesion assay microscopic observation, % [2, 15]: 30% | adhesion assay microscopic observation, cell shape [2, 15]: r | adhesion assay microscopic observation, % [2, 16]: 30% | adhesion assay microscopic observation, cell shape [2, 16]: r/s/sp | adhesion assay microscopic observation, % [2, 17]: 30% | adhesion assay microscopic observation, cell shape [2, 17]: r | adhesion assay microscopic observation, % [2, 18]: 30-40% | adhesion assay microscopic observation, cell shape [2, 18]: r/s/sp | adhesion assay microscopic observation, % [2, 19]: 30-40% | adhesion assay microscopic observation, cell shape [2, 19]: s/sp | adhesion assay microscopic observation, % [2, 20]: 30% | adhesion assay microscopic observation, cell shape [2, 20]: r/s/sp | adhesion assay microscopic observation, % [2, 21]: 30-40% | adhesion assay microscopic observation, cell shape [2, 21]: r/s/sp | adhesion assay microscopic observation, % [2, 22]: 30% | adhesion assay microscopic observation, cell shape [2, 22]: r/s/sp | adhesion assay microscopic observation, % [2, 23]: 20% | adhesion assay microscopic observation, cell shape [2, 23]: r | adhesion assay microscopic observation, % [2, 24]: 30% | adhesion assay microscopic observation, cell shape [2, 24]: r/s | adhesion assay microscopic observation, % [2, 25]: 20% | adhesion assay microscopic observation, cell shape [2, 25]: r | adhesion assay microscopic observation, % [2, 26]: 30% | adhesion assay microscopic observation, cell shape [2, 26]: r/s

GREDVDY
specificity of cell adhesion, ECs over SMCs [1]: showed specificity for ECs over SMCs | adhesion data among bioligands tested [1]: gave the most promising adhesion data | cell adhesion and cell spreading compared with fibronectin positive control [1]: neither of these peptide sequences equaled the large molecule fibronectin in cell adhesion or spreading | adhesion relative to basal levels ([2]; 10/90 PEA-H/PEA-TEMPO (H/T) conjugated to peptide): increased adhesion over basal levels | adhesion relative to basal levels ([2]; 50/50 PEA-H/PEA-Ac-Bz (H/Bz) conjugated to peptide): increased adhesion over basal levels | cell recruitment, complete evaluation of assays with conjugated peptides on polymer ([2]; Table 2 assays): more robust in cell recruitment than the longer (20 mer) CS5 peptide | ability of peptide to bind to cells after conjugation [2]: did not alter their ability to bind to cells | adhesion of ECs compared to SMCs on conjugated peptide versus unconjugated PEA-H polymer [2]: adhered significantly better to the conjugated peptides than on the unconjugated PEA-H polymer

Conj REDV: GREDVDY peptide (SEQ ID NO:11) conjugated to PEA-H mixed with PEA-Ac-Bz or PEA-Ac-TEMPO polymer coating (also: conjugated to PEA polymer coating)
adhesion assay microscopic observation, % [2, 3]: 30% | adhesion assay microscopic observation, cell shape [2, 3]: r/s | adhesion assay microscopic observation, % [2, 4]: 30% | adhesion assay microscopic observation, cell shape [2, 4]: r/s/sp | adhesion assay microscopic observation, % [2, 5]: 30% | adhesion assay microscopic observation, cell shape [2, 5]: r/s | adhesion assay microscopic observation, % [2, 6]: 30% | adhesion assay microscopic observation, cell shape [2, 6]: r/s/sp | adhesion assay microscopic observation, % [2, 7]: 20-30% | adhesion assay microscopic observation, cell shape [2, 7]: r | adhesion assay microscopic observation, % [2, 8]: 30-40% | adhesion assay microscopic observation, cell shape [2, 8]: r/s/sp | adhesion assay microscopic observation, % [2, 9]: 20-30% | adhesion assay microscopic observation, cell shape [2, 9]: r | adhesion assay microscopic observation, % [2, 10]: 30% | adhesion assay microscopic observation, cell shape [2, 10]: r/s/sp | adhesion assay microscopic observation, % [2, 11]: 30-40% | adhesion assay microscopic observation, cell shape [2, 11]: r/s/sp | adhesion assay microscopic observation, % [2, 12]: 30-40% | adhesion assay microscopic observation, cell shape [2, 12]: s/sp | adhesion assay microscopic observation, % [2, 13]: 30-40% | adhesion assay microscopic observation, cell shape [2, 13]: s/sp | adhesion assay microscopic observation, % [2, 14]: 40% | adhesion assay microscopic observation, cell shape [2, 14]: s/sp | adhesion assay microscopic observation, % [2, 15]: 30% | adhesion assay microscopic observation, cell shape [2, 15]: s/sp | adhesion assay microscopic observation, % [2, 16]: 30-40% | adhesion assay microscopic observation, cell shape [2, 16]: s/sp | adhesion assay microscopic observation, % [2, 17]: 30% | adhesion assay microscopic observation, % [2, 18]: 30% | adhesion assay microscopic observation, cell shape [2, 18]: r/s/sp | adhesion assay microscopic observation, % [2, 19]: 30% | adhesion assay microscopic observation, cell shape [2, 19]: s/sp | adhesion assay microscopic observation, % [2, 20]: 30-40% | adhesion assay microscopic observation, cell shape [2, 20]: r/s/sp | adhesion assay microscopic observation, % [2, 21]: 30-40% | adhesion assay microscopic observation, cell shape [2, 21]: r/s/sp | adhesion assay microscopic observation, % [2, 22]: 40% | adhesion assay microscopic observation, cell shape [2, 22]: s/sp | adhesion assay microscopic observation, % [2, 23]: 30% | adhesion assay microscopic observation, cell shape [2, 23]: r/s | adhesion assay microscopic observation, % [2, 24]: 30-40% | adhesion assay microscopic observation, cell shape [2, 24]: r/s/sp | adhesion assay microscopic observation, % [2, 25]: 20% | adhesion assay microscopic observation, cell shape [2, 25]: r | adhesion assay microscopic observation, % [2, 26]: 30-40% | adhesion assay microscopic observation, cell shape [2, 26]: s/sp
